Results published in patent US4024277A, “Phosphoro-aminosulfenyl derivatives of benzofuran carbamates” (priority 1975, dated 1977).

What was measured:
[1] = tested on: large milkweed bug; test: Seven-day residual insecticidal activity, milkweed bug; format: in vivo, Oncopeltus fasciatus (Dallas); details: Oncopeltus fasciatus, 48-hour exposure, read-out: % Kill, Milkweed Bug
Source text: (§1) b. Seven-Day Residual Insecticidal Activity
(§2) In this test, a candidate insecticide, in solution, is applied to uninfested plants or containers by dipping or spraying. A seven-day holding period is necessary before infestation. A 48-hour exposure period is observed before evaluation of the tests. The insect species used in this type of test are the same as those listed under initial activity.

[2] = tested on: pea aphid; test: Systemic insecticidal activity (soil/water), pea aphid; format: in vivo, Acyrthosiphon pisum (Harris); details: Acyrthosiphon pisum, 48-hour exposure, read-out: % Kill, Pea Aphid
Protocol: (§3) c. Systemic Insecticidal Acitivity (Soil/Water)
(§4) In this test, a candidate insecticide, in solution, is added to the soil of either uninfested pinto bean seedlings (Phaseolus vulgaris) or uninfested broad bean seedlings (Vicia faba var. Windsor). The plant species used depend on the insect species in the test. Usually, a 72-hour translocation period before infestation is required, followed by a 48-hour exposure period, before evaluation of the tests. The insect species used in the systemic tests are Mexican bean beetle, southern armyworm, pea aphid, and twospotted spider mite.

[3] = tested on: twospotted spider mite; test: Seven-day residual insecticidal activity, twospotted spider mite; format: in vivo, Tetranychus urticae Koch; details: Tetranychus urticae, 48-hour exposure, read-out: % Kill, Twospotted Spider Mite
Source text: as §1, §2

[4] = tested on: German cockroaches; test: Level II topical test, German cockroaches; format: in vivo, Blattella germanica (Linnaeus); details: GC (male), one microgram topically per insect
Protocol: (§5) e. Insecticidal Activity Against House Flies and German Cockroaches
In a Level II test the compounds of this invention were tested for insecticidal activity against female house flies (resistant) and male German cockroaches. Ten insects were anesthetized with carbon dioxide and placed in a container for about 2 hours, during which time the insects recovered to normal activity. The container confining the insects is fitted with a plunger which is used to force the insects against a nylon mesh at one end of the container. One microliter of an acetone solution containing one microgram of the candidate insecticide was applied topically to each insect. The plunger was withdrawn and the insects were allowed to move freely about the container. Knockdown counts were recorded 10 minutes after treatment of house flies and 30 minutes after treatment of cockroaches.

[5] = tested on: plum curculio; test: Seven-day residual insecticidal activity, plum curculio; format: in vivo, Conotrachelus nenuphar (Herbst); details: Conotrachelus nenuphar, 48-hour exposure, read-out: % Kill, Plum Curculio
Source text: as §1, §2

[6] = tested on: Mexican bean beetle; test: Seven-day residual insecticidal activity, Mexican bean beetle; format: in vivo, Epilachna varivestis Mulsant; details: Epilachna varivestis, 48-hour exposure, read-out: % Kill, Mexican Bean Beetle
Source text: as §1, §2

[7] = tested on: twospotted spider mite; test: Ovicidal activity against the twospotted spider mite; format: in vivo, Tetranychus urticae Koch; details: Tetranychus urticae, eggs, 7 to 10 days, read-out: % Kill (ovicidal)
Protocol: d. Ovicidal Activity Against the Twospotted Spider Mite
In this test, Pinto bean seedlings are infested with female twospotted spider mites; about 3-4 hours are allowed for egg deposition. Plants are then dipped in TEPP (tetraethylpyrophosphate-commercial emulsifiable concentrate (EC)) solution containing 936 ppm of active ingredient. TEPP kills motile forms on the leaf and promptly degrades without effecting the egg stage. Two to three hours after TEPP treatment the plants are again dipped -- this time into a candidate insecticide solution. The test plants are maintained for 7 to 10 days. Termination of exposure is determined by the time required to attain complete hatch in the untreated check.

[8] = tested on: pea aphid; test: Seven-day residual insecticidal activity, pea aphid; format: in vivo, Acyrthosiphon pisum (Harris); details: Acyrthosiphon pisum, 48-hour exposure, read-out: % Kill, Pea Aphid
Source text: as §1, §2

[9] = tested on: pea aphid; test: Initial insecticidal activity, pea aphid; format: in vivo, Acyrthosiphon pisum (Harris); details: Acyrthosiphon pisum, 48-hour exposure, read-out: % Kill, Pea Aphid
Source text: (§6) a. Initial Insecticidal Activity
(§7) In this test, a candidate insecticide, in solution, is applied to either infested or uninfested plants or containers by spraying or dipping. (The preferred test procedure varies with insect species. The dipping method is better than the spraying method, and vice versa, for certain species of insects. Also some species are better adapted to the test by infesting after the chemical treatment rather than before.) Once the tests have been established, a 48-hour exposure period is observed before reading the tests. Insect species included in these tests are Mexican bean beetle (Epilachna varivestis Mulsant), pea aphid [Acyrthosiphon pisum (Harris)], southern armyworm [Spodoptera eridania (Cramer)], twospotted spider mite (Tetranychus urticae Koch), large milkweed bug [Oncopeltus fasciatus (Dallas)], plum curculio [Conotrachelus nenuphar (Herbst)], confused flour beetle (Tribolium confusum Jacquelin duVal) and granary weevil [Sitophilus granarius (Linnaeus)]. Test results are set forth in Table I. A control sample, comprising the solution without the candidate insecticide, is also included.

[10] = tested on: Mexican bean beetle; test: Systemic insecticidal activity (soil/water), Mexican bean beetle; format: in vivo, Epilachna varivestis Mulsant; details: Epilachna varivestis, 48-hour exposure, read-out: % Kill, Mexican Bean Beetle
Protocol: as §3, §4

[11] = tested on: Mexican bean beetle; test: Initial insecticidal activity, Mexican bean beetle; format: in vivo, Epilachna varivestis Mulsant; details: Epilachna varivestis, 48-hour exposure, read-out: % Kill, Mexican Bean Beetle
Source text: as §6, §7

[12] = tested on: confused flour beetle; test: Initial insecticidal activity, confused flour beetle; format: in vivo, Tribolium confusum Jacquelin duVal; details: Tribolium confusum, 48-hour exposure, read-out: % Kill, Confused Flour Beetle
Source text: as §6, §7

[13] = tested on: house flies; test: Level I immersion test, house flies; format: in vivo, Musca domestica Linnaeus; details: HF, 5 mg/milliliter; for % Knockdown: 10 minutes after immersion; for mortality at 5000 µg/mL: Musca domestica, after 18-24 hours, read-out: % Kill
Protocol: as §5
Compounds of this invention were tested in a Level I test at 5 mg. of active compounds/milliliter of a solution of 40% acetone -- 60% water.
In this test a group of ten house flies (Musca domestica Linnaeus) were completely immersed in 25 ml. of the insecticidal test solution. After 10 seconds of immersion, the test solution is removed. The house flies are then transferred to holding cages lines with paper toweling. In the case of the house flies, the knockdown counts were recorded 10 minutes after termination of the immersion. The percent kill was recorded after 18-24 hours.

[14] = tested on: confused flour beetle; test: Seven-day residual insecticidal activity, confused flour beetle; format: in vivo, Tribolium confusum Jacquelin duVal; details: Tribolium confusum, 48-hour exposure, read-out: % Kill, Confused Flour Beetle
Source text: as §1, §2

[15] = tested on: plum curculio; test: Initial insecticidal activity, plum curculio; format: in vivo, Conotrachelus nenuphar (Herbst); details: Conotrachelus nenuphar, 48-hour exposure, read-out: % Kill, Plum Curculio
Source text: as §6, §7

Row | Structure (SMILES) | mortality at 39 ppm [1] [%] | mortality at 156 ppm [1] [%] | mortality at 1250 ppm [1] [%] | mortality at 39 ppm [2] [%] | mortality at 156 ppm [2] [%] | mortality at 39 ppm [3] [%] | mortality at 156 ppm [3] [%] | mortality at 1250 ppm [3] [%] | mortality at 39 ppm [5] [%] | mortality at 156 ppm [5] [%] | mortality at 1250 ppm [5] [%] | mortality at 39 ppm [6] [%] | mortality at 156 ppm [6] [%] | mortality at 1250 ppm [6] [%] | mortality at 156 ppm [7] [%] | mortality at 1250 ppm [7] [%] | mortality at 39 ppm [8] [%] | mortality at 156 ppm [8] [%] | mortality at 1250 ppm [8] [%] | mortality at 39 ppm [9] [%] | also measured
1 | CCOP(=O)(OCC)N(CC)SN(C)C(=O)Oc1cccc2c1OC(C)(C)C2 [8(c), 2,3-Dihydro-2,2-dimethyl-7-benzofuranyl [(N-diethoxyphosphinyl) (N-ethyl)aminosulfenyl][methyl]carbamate] | 95 | 100 | 100 | 0 | 100 | 0 | 0 | 0 | 0 | 5 | 100 | 12 | 93 | 100 | 0 | 26 | 0 | 0 | 0 | 0 | mortality at 0.001 mg ([4]; Blattella germanica, topical, read-out: % Kill): 0%; % Knockdown ([4]; 30 minutes): 0%; mortality at 156 ppm [9]: 83%; mortality at 1250 ppm [9]: 100%; mortality at 39 ppm [10]: 67%; mortality at 156 ppm [10]: 100%; mortality at 39 ppm [11]: 100%; mortality at 156 ppm [11]: 100%; mortality at 1250 ppm [11]: 100%; mortality at 39 ppm [12]: 0%; mortality at 156 ppm [12]: 0%; mortality at 1250 ppm [12]: 50%; % Knockdown [13]: 100%; mortality at 5000 µg/mL [13]: 100%; mortality at 39 ppm [14]: 0%; mortality at 156 ppm [14]: 0%; mortality at 1250 ppm [14]: 12%; mortality at 39 ppm [15]: 0%; mortality at 156 ppm [15]: 45%; mortality at 1250 ppm [15]: 100%
2 | CCCN(SN(C)C(=O)Oc1cccc2c1OC(C)(C)C2)P(=O)(Oc1ccccc1)Oc1ccccc1 [7(c)] | 26 | 21 | 60 | 0 | 0 | 1 | 0 | 0 | 5 | 0 | 0 | 20 | 89 | 100 | 0 | 0 | 0 | 0 | 0 | 11 | mortality at 156 ppm [9]: 0%; mortality at 1250 ppm [9]: 0%; mortality at 39 ppm [10]: 45%; mortality at 156 ppm [10]: 100%; mortality at 39 ppm [11]: 95%; mortality at 156 ppm [11]: 94%; mortality at 1250 ppm [11]: 100%; mortality at 39 ppm [12]: 0%; mortality at 156 ppm [12]: 0%; mortality at 1250 ppm [12]: 0%; % Knockdown [13]: 40%; mortality at 5000 µg/mL [13]: 0%; mortality at 39 ppm [14]: 0%; mortality at 156 ppm [14]: 0%; mortality at 1250 ppm [14]: 0%; mortality at 39 ppm [15]: 20%; mortality at 156 ppm [15]: 50%; mortality at 1250 ppm [15]: 65%
